Columns and labels:
Assay type in all cases: biochemical
[1] = target: T1, alcohol dehydrogenase (ADH) (Saccharomyces cerevisiae, UniProt P00330); assay: spectrophotometric NAD+ reduction, […] nm; details: read-out: Potassium Sorbate / IC20
T1 construct: gene ADH1
T1 sequence (P00330 2-348): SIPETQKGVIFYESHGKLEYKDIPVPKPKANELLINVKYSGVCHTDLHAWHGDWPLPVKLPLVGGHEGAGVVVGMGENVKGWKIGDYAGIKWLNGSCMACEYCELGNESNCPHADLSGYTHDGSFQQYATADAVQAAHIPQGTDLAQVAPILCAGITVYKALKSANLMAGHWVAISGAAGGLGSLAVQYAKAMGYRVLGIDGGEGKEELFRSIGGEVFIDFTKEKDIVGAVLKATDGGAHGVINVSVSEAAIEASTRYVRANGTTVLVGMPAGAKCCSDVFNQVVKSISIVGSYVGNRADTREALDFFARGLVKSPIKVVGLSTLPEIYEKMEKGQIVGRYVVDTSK

trypsin (Try) = target: T2, trypsin (Try) (Sus scrofa, UniProt P00761); assay: BAEE hydrolysis, absorbance […] nm; details: read-out: Potassium Sorbate / IC50 (converted)
T2 construct: native, from porcine pancreas, lyophilized, 1300 BAEE U/mg (Sigma-Aldrich)
T2 sequence (P00761 9-231): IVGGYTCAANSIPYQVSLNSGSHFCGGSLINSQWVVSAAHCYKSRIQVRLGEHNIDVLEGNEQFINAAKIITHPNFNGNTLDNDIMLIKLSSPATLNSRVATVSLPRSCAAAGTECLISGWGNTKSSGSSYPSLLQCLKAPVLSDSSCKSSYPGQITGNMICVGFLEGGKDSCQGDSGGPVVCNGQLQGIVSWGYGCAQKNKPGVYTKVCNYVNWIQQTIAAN

[2] = target: T3, lactate dehydrogenase (LDH) (Oryctolagus cuniculus, UniProt P13491); assay: spectrophotometric NAD+ reduction, […] nm; details: read-out: Sodium Benzoate / IC20
T3 construct: gene LDHA

| SMILES | IC20 [1] | IC50 (trypsin (Try)) | IC20 [2] |
| --- | --- | --- | --- |
| C/C=C/C=C/C(=O)O [potassium sorbate] | > 5000 µg/mL | 134 µM |  |
| O=C(O)c1ccccc1 [sodium benzoate] |  |  | 2200 ± 321 µg/mL |

Source: PMC10300798, “Alternative Enzyme Inhibition Assay for Safety Evaluation of Food Preservatives” (Life, 2023)
